ChEMBL document CHEMBL3885881, “DrugMatrix”

Species on record: Rattus norvegicus
Assay: DrugMatrix - Regimen: Daily Repeat
Format: toxicity, organism-based, Sprague-Dawley
Parameters: regimen Daily Repeat, gender Male, age 6-8 weeks
Settings: in vivo, po, route oral GAVAGE, […]; for ABSOLUTE BASOPHIL / BASOPHIL / NUCLEATED RED BLOOD CELLS / ABSOLUTE EOSINOPHIL / ABSOLUTE LYMPHOCYTE / ABSOLUTE MONOCYTE / ABSOLUTE SEGMENTED NEUTROPHIL / EOSINOPHIL / ERYTHROCYTE COUNT / HEMATOCRIT / HEMOGLOBIN / LEUKOCYTE COUNT / LYMPHOCYTE / MEAN CORPUSCULAR HEMOGLOBIN / MEAN CORPUSCULAR HEMOGLOBIN CONCENTRATION / MEAN CORPUSCULAR VOLUME / MONOCYTE / NEUTROPHIL / PLATELET COUNT: tissue Blood; for ALANINE AMINOTRANSFERASE / ALBUMIN / ALKALINE PHOSPHATASE / ASPARTATE AMINOTRANSFERASE / BLOOD UREA NITROGEN / CARBON DIOXIDE / CHLORIDE / CHOLESTEROL / CREATINE PHOSPHOKINASE / CREATININE / GLUCOSE / LACTATE DEHYDROGENASE / LIPASE / PHOSPHORUS / POTASSIUM / SODIUM / TOTAL BILIRUBIN / TOTAL PROTEIN / URIC ACID: tissue Plasma
[1] = 0 mg/kg, 72 h, dose level Control, time 3 day
[2] = 0 mg/kg, 120 h, dose level Control, time 5 day
[3] = 52 mg/kg, 72 h, dose level Low, time 3 day
[4] = 52 mg/kg, 120 h, dose level Low, time 5 day
[5] = 89 mg/kg, 72 h, dose level M1, time 3 day
[6] = 89 mg/kg, 120 h, dose level M1, time 5 day

With `Clc1ccccc1C(c1ccccc1)(c1ccccc1)n1ccnc1` [CLOTRIMAZOLE] the “ABSOLUTE BASOPHIL” value [1] was 0 CELLS/uL, the BASOPHIL [1] was 0% and the “NUCLEATED RED BLOOD CELLS” value [1] was 0 /100WBC. The “ABSOLUTE BASOPHIL” value [2] was 0 CELLS/uL, the BASOPHIL [2] was 0% and the “ABSOLUTE BASOPHIL” value [3] was 0 CELLS/uL. For the same compound, the “ABSOLUTE EOSINOPHIL” value [3] was 0 CELLS/uL, the “ABSOLUTE LYMPHOCYTE” value [3] was 7378.33 CELLS/uL and the “ABSOLUTE MONOCYTE” value [3] was 76.67 CELLS/uL. The “ABSOLUTE SEGMENTED NEUTROPHIL” value [3] was 611.67 CELLS/uL, the BASOPHIL [3] was 0% and the EOSINOPHIL [3] was 0%. For the same compound, the “ERYTHROCYTE COUNT” value [3] was 4.96 x10E6/uL, the HEMATOCRIT [3] was 32.7% and the HEMOGLOBIN [3] was 12.97 G/DL. The “LEUKOCYTE COUNT” value [3] was 8.07 x10E3/uL, the LYMPHOCYTE [3] was 91.33% and the “MEAN CORPUSCULAR HEMOGLOBIN” value [3] was 26.17 pg. For the same compound, the “MEAN CORPUSCULAR HEMOGLOBIN CONCENTRATION” value [3] was 39.67 G/DL, the “MEAN CORPUSCULAR VOLUME” value [3] was 65.97 fL and the MONOCYTE [3] was 1%. The NEUTROPHIL [3] was 7.67%, the “NUCLEATED RED BLOOD CELLS” value [3] was 0 /100WBC and the “PLATELET COUNT” value [3] was 996.33 x10E3/uL. For the same compound, the “ALANINE AMINOTRANSFERASE” value [3] was 116 u/L, the ALBUMIN [3] was 3.73 G/DL and the “ALKALINE PHOSPHATASE” value [3] was 475.33 u/L. For the same compound, the “ASPARTATE AMINOTRANSFERASE” value [3] was 102.67 u/L, the “BLOOD UREA NITROGEN” value [3] was 13.33 mg/dL and the “CARBON DIOXIDE” value [3] was 38 mmol/L. For the same compound, the CHLORIDE [3] was 99 MEQ/L, the CHOLESTEROL [3] was 69.33 mg/dL and the “CREATINE PHOSPHOKINASE” value [3] was 256 u/L. For the same compound, the CREATININE [3] was 0.12 mg/dL, the GLUCOSE [3] was 158 mg/dL and the “LACTATE DEHYDROGENASE” value [3] was 99 u/L. For the same compound, the LIPASE [3] was 11 u/L, the PHOSPHORUS [3] was 9.1 mg/dL and the POTASSIUM [3] was 5.46 MEQ/L. The SODIUM [3] was 142.67 MEQ/L, the “TOTAL BILIRUBIN” value [3] was 0.17 mg/dL and the “TOTAL PROTEIN” value [3] was 5.43 G/DL. The “URIC ACID” value [3] was 0.57 mg/dL, the “ABSOLUTE BASOPHIL” value [4] was 0 CELLS/uL and the “ABSOLUTE EOSINOPHIL” value [4] was 0 CELLS/uL. The “ABSOLUTE LYMPHOCYTE” value [4] was 8088.33 CELLS/uL, the “ABSOLUTE MONOCYTE” value [4] was 127.33 CELLS/uL and the “ABSOLUTE SEGMENTED NEUTROPHIL” value [4] was 651 CELLS/uL. For the same compound, the BASOPHIL [4] was 0%, the EOSINOPHIL [4] was 0% and the “ERYTHROCYTE COUNT” value [4] was 5.31 x10E6/uL. The HEMATOCRIT [4] was 34.07%, the HEMOGLOBIN [4] was 13.3 G/DL and the “LEUKOCYTE COUNT” value [4] was 8.87 x10E3/uL. The LYMPHOCYTE [4] was 91.67%, the “MEAN CORPUSCULAR HEMOGLOBIN” value [4] was 25.1 pg and the “MEAN CORPUSCULAR HEMOGLOBIN CONCENTRATION” value [4] was 39.1 G/DL. For the same compound, the “MEAN CORPUSCULAR VOLUME” value [4] was 64.2 fL, the MONOCYTE [4] was 1.33% and the NEUTROPHIL [4] was 7%. For the same compound, the “NUCLEATED RED BLOOD CELLS” value [4] was 0 /100WBC, the “PLATELET COUNT” value [4] was 1063.67 x10E3/uL and the “ALANINE AMINOTRANSFERASE” value [4] was 68 u/L. For the same compound, the ALBUMIN [4] was 3.9 G/DL, the “ALKALINE PHOSPHATASE” value [4] was 421.33 u/L and the “ASPARTATE AMINOTRANSFERASE” value [4] was 83.33 u/L. For the same compound, the “BLOOD UREA NITROGEN” value [4] was 13.33 mg/dL, the “CARBON DIOXIDE” value [4] was 27.33 mmol/L and the CHLORIDE [4] was 104.33 MEQ/L. For the same compound, the CHOLESTEROL [4] was 79.67 mg/dL, the “CREATINE PHOSPHOKINASE” value [4] was 203.67 u/L and the CREATININE [4] was 0.34 mg/dL. The GLUCOSE [4] was 183 mg/dL, the “LACTATE DEHYDROGENASE” value [4] was 97.67 u/L and the LIPASE [4] was 12.67 u/L. It also gave a PHOSPHORUS [4] of 12.3 mg/dL, a POTASSIUM [4] of 5.8 MEQ/L and an SODIUM [4] of 144.6 MEQ/L. The “TOTAL BILIRUBIN” value [4] was 0.1 mg/dL, the “TOTAL PROTEIN” value [4] was 6.03 G/DL and the “URIC ACID” value [4] was 0.63 mg/dL. The “ABSOLUTE BASOPHIL” value [5] was 0 CELLS/uL, the “ABSOLUTE EOSINOPHIL” value [5] was 25.67 CELLS/uL and the “ABSOLUTE LYMPHOCYTE” value [5] was 8596 CELLS/uL. For the same compound, the “ABSOLUTE MONOCYTE” value [5] was 0 CELLS/uL, the “ABSOLUTE SEGMENTED NEUTROPHIL” value [5] was 345 CELLS/uL and the BASOPHIL [5] was 0%. The EOSINOPHIL [5] was 0.33%, the “ERYTHROCYTE COUNT” value [5] was 5.65 x10E6/uL and the HEMATOCRIT [5] was 35.6%. The HEMOGLOBIN [5] was 13.1 G/DL, the “LEUKOCYTE COUNT” value [5] was 8.97 x10E3/uL and the LYMPHOCYTE [5] was 95.33%. The “MEAN CORPUSCULAR HEMOGLOBIN” value [5] was 23.17 pg, the “MEAN CORPUSCULAR HEMOGLOBIN CONCENTRATION” value [5] was 36.8 G/DL and the “MEAN CORPUSCULAR VOLUME” value [5] was 63.03 fL. For the same compound, the MONOCYTE [5] was 0%, the NEUTROPHIL [5] was 4.33% and the “NUCLEATED RED BLOOD CELLS” value [5] was 0 /100WBC. The “PLATELET COUNT” value [5] was 1000.33 x10E3/uL, the “ALANINE AMINOTRANSFERASE” value [5] was 74.67 u/L and the ALBUMIN [5] was 3.87 G/DL. For the same compound, the “ALKALINE PHOSPHATASE” value [5] was 348.33 u/L, the “ASPARTATE AMINOTRANSFERASE” value [5] was 101.33 u/L and the “BLOOD UREA NITROGEN” value [5] was 15.67 mg/dL. For the same compound, the “CARBON DIOXIDE” value [5] was 31.33 mmol/L, the CHLORIDE [5] was 99.67 MEQ/L and the CHOLESTEROL [5] was 51 mg/dL. For the same compound, the “CREATINE PHOSPHOKINASE” value [5] was 324.67 u/L, the CREATININE [5] was 0.17 mg/dL and the GLUCOSE [5] was 143.67 mg/dL. The “LACTATE DEHYDROGENASE” value [5] was 156.33 u/L, the LIPASE [5] was 11 u/L and the PHOSPHORUS [5] was 10.37 mg/dL. For the same compound, the POTASSIUM [5] was 5.81 MEQ/L, the SODIUM [5] was 144 MEQ/L and the “TOTAL BILIRUBIN” value [5] was 0.13 mg/dL. The “TOTAL PROTEIN” value [5] was 5.63 G/DL, the “URIC ACID” value [5] was 0.4 mg/dL and the “ABSOLUTE BASOPHIL” value [6] was 0 CELLS/uL. For the same compound, the “ABSOLUTE EOSINOPHIL” value [6] was 0 CELLS/uL, the “ABSOLUTE LYMPHOCYTE” value [6] was 14137.33 CELLS/uL and the “ABSOLUTE MONOCYTE” value [6] was 157.33 CELLS/uL. For the same compound, the “ABSOLUTE SEGMENTED NEUTROPHIL” value [6] was 1305.33 CELLS/uL, the BASOPHIL [6] was 0% and the EOSINOPHIL [6] was 0%. For the same compound, the “ERYTHROCYTE COUNT” value [6] was 5.79 x10E6/uL, the HEMATOCRIT [6] was 36.4% and the HEMOGLOBIN [6] was 13.37 G/DL. The “LEUKOCYTE COUNT” value [6] was 15.6 x10E3/uL, the LYMPHOCYTE [6] was 91% and the “MEAN CORPUSCULAR HEMOGLOBIN” value [6] was 23.1 pg. The “MEAN CORPUSCULAR HEMOGLOBIN CONCENTRATION” value [6] was 36.73 G/DL, the “MEAN CORPUSCULAR VOLUME” value [6] was 62.87 fL and the MONOCYTE [6] was 1%. The NEUTROPHIL [6] was 8%, the “NUCLEATED RED BLOOD CELLS” value [6] was 0 /100WBC and the “PLATELET COUNT” value [6] was 1140.67 x10E3/uL. The “ALANINE AMINOTRANSFERASE” value [6] was 77.33 u/L, the ALBUMIN [6] was 4.17 G/DL and the “ALKALINE PHOSPHATASE” value [6] was 461 u/L. The “ASPARTATE AMINOTRANSFERASE” value [6] was 103 u/L, the “BLOOD UREA NITROGEN” value [6] was 13.67 mg/dL and the “CARBON DIOXIDE” value [6] was 23.67 mmol/L. For the same compound, the CHLORIDE [6] was 102 MEQ/L, the CHOLESTEROL [6] was 58 mg/dL and the “CREATINE PHOSPHOKINASE” value [6] was 255 u/L. The CREATININE [6] was 0.13 mg/dL, the GLUCOSE [6] was 97.33 mg/dL and the “LACTATE DEHYDROGENASE” value [6] was 293 u/L. The LIPASE [6] was 38.67 u/L, the PHOSPHORUS [6] was 9.33 mg/dL and the POTASSIUM [6] was 7.02 MEQ/L. For the same compound, the SODIUM [6] was 147.95 MEQ/L, the “TOTAL BILIRUBIN” value [6] was 0.33 mg/dL and the “TOTAL PROTEIN” value [6] was 6.23 G/DL. For the same compound, the “URIC ACID” value [6] was 1.27 mg/dL.
